Test results published in PubChem BioAssay (NCI).
“And” between values parts separate entries of the source, which are not always exact repeats. Equal entries are not always repeated.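 Where inhibition never reached the appropriate level, the endpoint shown equals the highest concentration tested. Otherwise, values were interpolated linearly from a five-concentration, 48-hour dose response in 96-well plates. GI50 = concentration required for 50% inhibition of growth. TGI marks complete inhibition of growth.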

Assays:
Assay in all cases: NCI anticancer screen, dose series, 48 h
[1] = tested on: UACC-257 melanoma
[2] = tested on: SNB-75 CNS
[3] = tested on: OVCAR-3 ovarian
[4] = tested on: OVCAR-4 ovarian
[5] = tested on: SK-MEL-28 melanoma
[6] = tested on: HS 578T breast
[7] = tested on: HCT-116 colon
[8] = tested on: TK-10 renal
[9] = tested on: MDA-MB-435
[10] = tested on: MDA-MB-231 breast

Structure (SMILES)	TGI [1]	TGI [2]	TGI [3]	TGI [4]	TGI [5]	TGI [6]	TGI [7]	TGI [8]	TGI [9]	TGI [10]	GI50 [1]	GI50 [2]	GI50 [3]	GI50 [4]	GI50 [5]	GI50 [6]	GI50 [7]	GI50 [8]	GI50 [9]	GI50 [10]
CC(C)(C)OC[C@H](O)CC#N	> 100 µM	> 100 µM	> 100 µM	> 100 µM	> 100 µM	> 100 µM	> 100 µM	> 100 µM	> 100 µM	> 100 µM										
O=C1CC(=O)OC(c2ccc([N+](=O)[O-])cc2)O1	3.36 µM	3.12 µM	3.37 µM	8.91 µM	4.08 µM	11.9 µM	3.12 µM	4.53 µM	8.62 µM	5.09 µM	1.66 µM	1440 nM	1770 nM	2820 nM	1930 nM	2700 nM	1610 nM	1920 nM	2590 nM	2210 nM
O=C1NC2(CN3CCC2CC3)C(=O)N1CN(Cc1ccccc1)c1ccccc1 (stereo not given)	> 100 µM	> 100 µM	> 100 µM	> 100 µM	> 100 µM	> 100 µM	> 100 µM	> 100 µM	> 100 µM	> 100 µM										
COC(=O)CCCCCN=Cc1c(O)c(O)c(C(C)C)c2cc(C)c(-c3c(C)cc4c(C(C)C)c(O)c(O)c(C=NCCCCCC(=O)OC)c4c3O)c(O)c12		> 32.5 µM	> 32.5 µM	> 32.5 µM	> 32.5 µM	> 32.5 µM	> 32.5 µM	> 32.5 µM	> 32.5 µM	> 32.5 µM		2550 nM	1270 nM	1050 nM	1950 nM	1680 nM	1230 nM	1150 nM	1820 nM	1360 nM
O=C(O)CSc1ncccc1[N+](=O)[O-]	> 100 µM	> 100 µM	> 100 µM	> 100 µM	> 100 µM	> 100 µM	> 100 µM	> 100 µM	> 100 µM	> 100 µM										
CCN(CC)CCNc1n[n+]([O-])c2ccccc2[n+]1[O-]	18.3 µM and 20.4 µM	45.3 µM and 55.4 µM	26.2 µM	11.2 µM and 73.6 µM	> 100 µM	97.5 µM	26.6 µM and 31 µM	> 68.5 µM and 41.8 µM	50 µM and > 100 µM	27.3 µM and 20.7 µM	8.39 µM and 3.54 µM	4070 nM and 14800 nM								6080 nM and 2830 nM
Cn1c(=O)c2c(ncn2CN2CCN(Cn3cnc4c3c(=O)n(C)c(=O)n4C)CC2)n(C)c1=O	> 100 µM	> 100 µM	> 100 µM	> 100 µM	> 100 µM	> 100 µM	34.6 µM	> 100 µM	> 100 µM	> 100 µM										
Cn1cc(CNCC2CCN(c3ncc(C(=O)NO)cn3)CC2)c2ccccc21	0.363 µM	8.62 µM	0.126 µM	52.1 µM	0.102 µM	42.6 µM	0.0328 µM	0.0683 µM	0.123 µM	5.58 µM	0.0119 µM	< 10.8 nM	15.8 nM	15.5 nM	12.2 nM	18.5 nM	< 10 nM	< 10.7 nM	12 nM	40 nM
CNC(=S)N/N=C/c1ccc([N+](=O)[O-])s1	> 10 µM	> 10 µM	7.24 µM	> 10 µM	> 10 µM	> 10 µM	> 10 µM	> 10 µM	> 10 µM	> 10 µM										
COc1ccc(-c2cn[nH]c2-c2cc(OC)c3c(c2)OCCO3)cc1	55.4 µM	0.738 µM	0.3 µM	> 100 µM	46.3 µM	34.4 µM	13.9 µM	48.4 µM	0.0977 µM	10.9 µM	14.8 µM	122 nM	42.3 nM	1030 nM	2120 nM	231 nM	70.8 nM	457 nM	26.6 nM	179 nM
Fc1cccc(Cl)c1/C=N\N=C1c2ccccc2-c2ccccc21	> 100 µM		> 100 µM	> 100 µM	> 100 µM	> 100 µM	> 100 µM	> 100 µM	> 100 µM	> 100 µM										
COc1ccc(Cn2c(Cl)c(/C=C3/C(=O)Nc4ccccc43)c3cc(OC)c(C)cc32)cc1	> 100 µM		5.37 µM	> 100 µM	> 100 µM	> 100 µM	39.1 µM	> 100 µM	6.08 µM	> 100 µM	55.3 µM		2300 nM	4010 nM	4030 nM	2320 nM	3770 nM	13300 nM	2060 nM	4220 nM
Cc1cc(=O)oc2cc(O)c(CN(C)CC(=O)O)cc12	> 100 µM	> 100 µM		> 100 µM	> 100 µM	> 100 µM	> 100 µM	> 100 µM	> 100 µM	> 100 µM										
COc1ccc(C2CC(n3nnnc3-c3ccccc3)=NN2)cc1 (stereo not given)	12.6 µM	54 µM	12 µM	94.8 µM	> 100 µM	70.3 µM	22.3 µM		15.6 µM	12.8 µM	2.76 µM	14400 nM	3050 nM	1110 nM	13300 nM	19700 nM	4870 nM		974 nM	564 nM
